Assay results as given in US20240366602A1, “COMBINATION THERAPY OF APELIN RECEPTOR AGONIST AND GLP-1 RECEPTOR AGONIST FOR TREATING A DISEASE OR CONDITION ASSOCIATED WITH WEIGHT GAIN” (BioAge Labs, Inc., priority 2023, published 2024).

Experiments:
[1] = test system: Diet-Induced Obese Mice; assay: Combination of BAL-1480 and tirzepatide in obese mice (Example 6); type: in vivo
From the text: To measure the effect of another APJ agonist, BAL-1480, compound 13 as described by Narayanan et al. in J. Med. Chem. 2021, 64, 3006-3025, on weight loss or body composition in Diet-Induced Obese Mice by GLP-1 receptor agonist tirzepatide.
Measurement used and justifications include: body weight, food intake, water intake, non-fasted blood glucose, and body composition by Echo-MRI.
C57BL/6 obese male mice from Jax and housed to 9-months old were fed with a lean control diet D12450B (10 kcal % fat) and a diet-induced obesity (DIO) diet D12492 (60 kcal % fat) (Research Diets, Inc.).
Male DIO mice were acclimated to a single house cage for two weeks. Body weight, morning non-fasted blood glucose, and body composition were measured for randomization. Target DIO weight range at randomization 51.4-67.5 g. After randomization, mice were given treatment as the following groups (All groups were paired with relative dosing s.c. vehicle (20 mM citrate buffer at pH 7.0, 4 mL/kg) or drinking water with addition of 5 mM Sucralose (5 mM Sucralose, pH 3) to insure water consumption despite possible taste alterations from drug).
Study groups • 0. Lean ctrl, n=7 • 1. DIO+VEH (vehicle), n=7 • 2. DIO+BAL-1480 (0.25 g/L in drug water), n=7 • 3. DIO+BAL-1480 (1 g/L in drug water), n=7 • 4. DIO+tirzepatide (10 nmol/kg), n=7 • 5. DIO+tirzepatide (10 nmol/kg)+BAL-1480 (0.25 g/L in drug water), n=7 • 6. DIO+tirzepatide (10 nmol/kg)+BAL-1480 (1 g/L in drug water), n=7
(0) Lean control: age matched lean mice control (5 mM sucralose water+vehicle, s.c., every 3 days); (1) DIO+VEH: diet-induced obese mice treated with vehicle control (5 mM sucralose water, pH 3+vehicle, s.c., every 3 days); (2) DIO+BAL-1480 (0.25 g/L in drug water): diet-induced obese mice treated with BAL-1480 at 0.25 g/L; (3) DIO+BAL-1480 (1 g/L in drug water): diet-induced obese mice treated with BAL-1480 at 1 g/L; (4) DIO+tirzepatide (10 nmol/kg): diet-induced obese mice treated with tirzepatide at 10 nmol/kg, s.c., every 3 days+5 mM sucralose water, pH 3; (5) DIO+tirzepatide (10 nmol/kg)+BAL-1480 (0.25 g/L in drug water): diet-induced obese mice treated with tirzepatide at 10 nmol/kg in combination with BAL-1480 at 0.25 g/L; (6) DIO+tirzepatide (10 nmol/kg)+BAL-1480 (1 g/L in drug water): diet-induced obese mice treated with tirzepatide at 10 nmol/kg in combination with BAL-1480 at 1 g/L.
Tirzepatide (hydrochloride) was purchased from MCE (Cat No. HY—P1731B/CS-0107005). Mw=4849.91, 10 nmol/kg=0.0485 mg/kg, 4 mL/kg, drug concentration: 0.012 mg/mL in s.c. vehicle, every 3 days. BAL-1480 0.25 g/L or 1 g/L was prepared in drinking water with 5 mM Sucralose, pH 3.
Body weight, food intake, water intake, body composition and morning non-fasted blood glucose were measured during the entire study. After 20 days of treatment and measurement, mice were taken down to harvest tissues for further downstream analysis. On the day of necropsy, blood plasma and organ/tissue samples were collected. Tissue samples were weighed and processed for further tests. Terminal cardiac blood samples (Heparin plasma) were obtained.
Data were expressed as mean±SEM and statistically analyzed by 1-way or 2-way ANOVA

[2] = test system: Diet-Induced Obese (DIO) mice; assay: Pilot study of BGE-105 in aged DIO mice treated with semaglutide (Example 1); type: in vivo
From the text: Endpoints and measurements used to assess effects included: • Body Weight, Clinical Evaluation & Body Condition Score; • Group Food Intake, Water Intake; • Fed Glucose; • Body composition by Echo-MRI; • Baseline and endpoint grid hang tests; and • Endpoint tissue harvest.
25-month-old (aged) C57BL/6 female mice were used in this study. Diet for 25-month-old C57BL/6 mice included lean control D12450B (10 kcal % fat), or a diet induced-obesity (DIO) diet D12492 (60 kcal % fat) (Research Diets, Inc.). The study duration was 37 days. Treatment started on Day 0 and ended on Day 35-36.
Semaglutide was purchased from MCE (Cat No. HY-114118/CS-0069903)
Mice from all Groups (1-5) were measured with fed glucose, and body weight and body composition for randomization.
Body weight, group food intake, group water intake, body composition and grid hang tests were measured and monitored during the study.
On the day of necropsy, blood plasma and tissue samples were collected.

[3] = BAL-1480 monotherapy 1 g/L, both combination groups, vs tirzepatide monotherapy

Compound | Fatty liver weight and fat tissue weights at terminal harvest ([1]; BAL-1480 1 g/L and combination groups vs tirzepatide monotherapy) | Muscle to body weight percentages at terminal harvest ([1]; BAL-1480 1 g/L and combination groups, to similar level as lean control mice) | Fat mass percentage [1, 3] | Lean mass percentage [1, 3] | Lean/fat ratio [1, 3] | Absolute fat mass ([1]; BAL-1480 monotherapy 1 g/L, combinations tirzepatide 10 nmol/kg + BAL-1480 0.25 or 1 g/L, vs tirzepatide monotherapy) | Weight loss ([1]; obese mice, BAL-1480 0.25 and 1 g/L in drinking water) | Muscle function, grid hang test (latency before mice fell from the grid) ([2]; semaglutide 100 nmol/kg, BGE-105 1.1 mg/mL, combination compared to either agent alone) | Weight of perigonadal fat at study endpoint ([2]; semaglutide 100 nmol/kg, BGE-105 1.1 mg/mL, combination loss statistically significant) | Quadriceps weight as a percentage of total body weight at study endpoint ([2]; semaglutide 100 nmol/kg, BGE-105 1.1 mg/mL, vs DIO control mice) | neutrophil gelatinase-associated lipocalin (NGAL) level at study endpoint ([2]; vs DIO control mice)
COc1cccc(OC)c1-c1cc(C(=O)N[C@@H](CCN2CCCCC2)CC(=O)NC2CCC2)nn1C1CCCC1 [BAL-1480] | reduced the fatty liver weight and fat tissue weights | dramatically increased the muscle to body weight percentages | significant decrease of fat mass percentage | significant increase of lean mass percentage | significant increase of lean/fat ratio | significant reduction of absolute fat mass | dose-dependent effect on weight loss |  |  |  | 
semaglutide [reference compound] |  |  |  |  |  |  |  | increased muscle function | statistically insignificant loss in perigonadal fat | increased quadricep weight as a percentage of total body weight, but the increases did not achieve statistical significance | decreased plasma NGAL level
